# In patent US9770423B2, “Modulation sAPP, sAAPα and BDNF levels in individuals diagnosed with FXS and ASD” (Indiana University Research and Technology Corp., priority 2012, dated 2017):
# Where “and” joins values, the source holds several entries; their conditions need not be identical. Equal values may be shown once.
# Experiments:
# [1] = tested on: leptin, beta endorphin, cortisol; conditions: humans with alcohol dependence; cited from earlier work
# [2] = tested on: youths symptomatic for an autistic disorder; conditions: mean dose 1,110 mg/day, 10 to 30 weeks; cited from earlier work
# sAPP = assay: plasma sAPP total by ELISA pre- and post-acamprosate; type: in vivo, human
# Excerpt: For sAPP levels, the Test plasma samples should be measured soon after collection. […] Just before assay, we thawed the test samples at a low temperature and mixed them completely. The plasma samples should be diluted appropriately with the EIA buffer, if needed. Duplicate measurement of test samples and standard are recommended. We used test samples in neutral pH range, and avoided the contaminations of organic solvent that may affect the measurement. Regarding the standard to quantify levels of sAPP, we prepared a series of sAPP standards in EIA buffer by serial dilutions, from 0.39 ng/mL to 25 ng/mL.
# The ELISA plate was pre-coated with anti-human APP (R12A1) mouse IgG (IBL). First, the wells for reagent blank was determined, and 100 μL each of “EIA buffer” or 10 mM NaHCO3 buffer was added into the wells. Likewise, wells were assigned for test sample blank, test sample and diluted standard. Then 100 μL each of test sample blank, test sample and dilutions of standard was added into the appropriate wells. The test sample included the plasma sample from each subject, which may vary from 5-25 μl, made up to 100 μL with the EIA buffer. Each pre-coated plates was incubated overnight at 4° C. after covering it tightly with a plate lid. The plate was kept onto a rocker with gentle shaking. The next day, each well of the pre-coated plate was vigorously washed with wash buffer containing 0.05% Tween20 in phosphate buffer. This was performed by filling each well with wash buffer, leaving the pre-coated plate laid for 15-30 seconds and removing wash buffer completely from the plate by snapping. This procedure was repeated five times. After removing the remaining liquid from all wells completely by snapping the plate onto paper towel, we added 100 μL of labeled antibody solution into the wells of test samples, diluted standard and test sample blank. HRP labeled anti-Human APP (R101A4) mouse IgG from IBL was used. The plate was incubated for 30 minutes at 4° C. after covering it with plate lid, and then washed the plate 5 times in the same manner as described before. To develop the color, 100 μL of the Chromogen (TMB solution) was adding into the wells, and the plate was incubated for 30 minutes at room temperature in the dark.
# When the liquid started turning blue (by addition of the Chromogen), 100 μL of the Stop solution (1N H2SO4) was added into the wells. […] A plate reader was used and measurements were conducted at 450 nm against a reagent blank. […]
# The first project enrolled 12 youth aged 5 to 17 years with fragile X syndrome and comorbid ASD in a 10-week open-label trial of acamprosate. […] Plasma sAPP total and sAPPα were determined in serum using the ELISA kit obtained from Immuno Biological Laboratories (IBL, Gumma, Japan). […]
smiles,measurement,setting,value
"CC(=O)NCCCS(=O)(=O)O.[Ca] [acamprosate, Calcium Acetylhomotaurine]",hormone levels,[1],"lowers levels of several hormones: leptin, beta endorphin, cortisol"
same,youths judged treatment responders,[2],five of six
same,fractional change in sAPP (total)-CP,"sAPP; individual patients 1-6, baseline to Week 12",−0.8279 and −0.3066 and −0.0102 and −0.1029 and −0.437 and −0.544
same,mean sAPP total post-treatment,"sAPP; pooled 15 participants (9 FXS, 6 idiopathic ASD), pre-treatment 32.6±38.3 ng/mL, p=0.01",21.4 ± 32.3 ng/mL
same,"levels of both sAPP total and sAPPα, direction of change per sample",sAPP; pooled 15 subjects,reduced with treatment in every sample tested except in one subject with idiopathic ASD where sAPPα was unchanged
same,mean sAPP total levels at endpoint,"sAPP; six subjects of the 12-week trial, baseline 34.7 ng/mL, p=0.02",19.3 ng/mL
